Experiment [1] is described as follows: Neutralization of endotoxin added to plasma or buffer, kinetic chromogenic Limulus Amebocyte Lysate endotoxin assay. It counts as biochemical. The source says: The presence of endotoxin may routinely be measured using, for example, a kinetic chromogenic method. The assay involves a complete set of enzyme reactions which are described in detail in the following publications, each of which is hereby incorporated by reference. Endosafe Limulus Amebocyte Lysate Endochrome-K™ package insert. (Endosafe, Charleston, SC) Pearson III, F., Pyrogens/Endotoxins, LAL Testing and Depyrogenation, 1985. Watson, S., Levin, J., and Novitsky, T., Progress in Clinical and Biological Research, Endotoxins and their detection with the Limulus Amebocyte Lysate Test, 93.
In the course of the endotoxin assay, a calibration curve is prepared which is a plot of logarithm of the time of the kinetic endpoint of a chromogenic reaction versus the logarithm of known concentrations of endotoxin.
Thus, if endotoxin is added to aqueous buffer solutions or to plasma the amount of endotoxin present can be assayed by reference to the calibration curve. Similarly, if plasma, plasma fractions, patient samples or any test solution contains an endogenous level of endotoxin, the level can also be determined by reference to the calibration curve.
Endotoxin was purposely added to plasma to a final concentration of 10 ng/mL and increasing concentrations of the compounds Arg Helix #2 (a monomeric cationic helix peptide), Bis Arg Helix #2 (which contains 2 copies of Arg Helix #2), Tris Arg Helix #3 (which contains 3 copies of Arg Helix #3), Tetra Arg Helix #3 (4 copies of Arg Helix #3) or Tris Arg Helix #3 (constrained) (3 copies of Arg Helix #3 constrained by design to present a "binding groove" within the molecule) were added to these same samples (Table 1).

Experiment [2] concerns E. coli (strain JM 109). Nature of the experiment: Neutralization of endotoxin presented by intact E. coli, endotoxin chromogenic assay. The class given is biochemical, Escherichia coli. As to conditions: TR3 CONST 200 µg/mL; for % neutralization / Endotoxin Equivalents: 10 min, 37°C. How it is done:
LPS is presented on the surface of gram-negative bacteria, such as Escherichia coli (E. coli). It was thus of interest to determine whether TR3 CONST would bind LPS present on whole bacterial cells. The assay method used was the endotoxin chromogenic assay as described above.
Thus, increasing amounts of E. coli (strain JM 109) were incubated (10 min; 37°C) in the presence or absence of 200 µg/mL TR3 CONST in 10 mM phosphate-150 mM NaCI-3 mM KCI buffer, pH 7.4. An aliquot of the incubation mixture was then assayed for residual endotoxin activity as previously described.
Equivalent endotoxin concentrations are deduced by reference to the endotoxin calibration curve.

The nature of experiment [3]: Titration circular dichroism spectroscopy of endotoxin binding. As to conditions: CD titration. How it is done:
Circular dichroism (CD) spectroscopy can be used to determine the fractional percent of secondary structural elements present in a peptide preparation. Titration CD spectroscopy can be used to assess the effect of binding a ligand on the reorganization of peptide structure (You, Scarsdale, and Harris 1991; Sobel, Soler, et al 1992; Soler, Sobel and Harris 1992; Tyler-Cross, Sobel et al 1993; Tyler-Cross, Sobel, Marques et al, 1994). Thus, incremental amounts of endotoxin were added to a solution of TR3 CONST and the effect of binding endotoxin by the peptide was assessed by CD spectroscopy.
By CD, Tris Arg Helix #3 (constrained) is 18% helix in solution (20°C) but complexation with endotoxin increases the helix character of the peptide to nearly 50% (Figure 3). Note that binding of endotoxin is dose dependent and saturable.
In general terms: Circular dichroism is the unequal absorption of left and right circularly polarised light.

In experiment [4] the test system is E. coli (strain JM 109). Nature of the experiment: Neutralization of endotoxin presented by intact E. coli, endotoxin chromogenic assay. The class given is biochemical, Escherichia coli. As to conditions: 3e06 or 3e07 E. coli per mL; increasing peptide concentrations; within 10 min at 37°C (Figure 5).

The values that follow come from patent publication EP1232754A2, “Use of cationic helix peptides for treatment of sepsis and for detection and removal of endotoxins” (Commonwealth Biotechnologies, Inc., priority 2001, dated 2002).

Bridges are numbered along the chain shown (N, C = ends). Roman numbers before positions name the chains, in order. [ ]: non-standard residue; d: D form. Dap = NC[C@H](N)C(=O)O

In general, Kd refers to the equilibrium constant for the complex coming apart. A high value points to weaker binding.

With “I: Ac-AEARARRAAARAARRAKKP[Dap]E-NH2 / II: Ac-AEARARRAAARAARRA / III: Ac-AEARARRAAARAARRA (amide I:18-II:C, I:20-III:C) [Tris Arg Helix #3 (constrained)]”, in experiment [1] (1 mg/ml peptide, water or plasma solution), the endotoxin quantitatively bound is recorded as more than 1 µg/mL. Moreover, the “Percent Binding of” value in experiment [1] (Endotoxin 5, peptide 2.5 (ng/mL and mg/mL)) is 100%; in experiment [1] (Endotoxin 50, peptide 2.5 (ng/mL and mg/mL)) it was 100%; in experiment [1] (Endotoxin 500, peptide 1.0 (ng/mL and mg/mL)), approximately 100%. Moreover, in experiment [1] (aqueous samples, compared with plasma), the “neutralization of endotoxin added to aqueous samples” value is reported as “same results were obtained”. The “% neutralization” value with E. coli (strain JM 109) [2] (E. coli 3e03 organisms/mL) is reported as 100%; in the experiment on E. coli (strain JM 109) [2] (E. coli 3e04 organisms/mL), 100%; in the experiment on E. coli (strain JM 109) [2] (E. coli 3e05 organisms/mL), 100%; in the experiment with E. coli (strain JM 109) [2] (E. coli 3e06 organisms/mL) it was 87.9%; in the experiment on E. coli (strain JM 109) [2] (E. coli 3e07 organisms/mL) it was 48.8%. In addition, the “Endotoxin Equivalents” value is 0.00 ng/mL with E. coli (strain JM 109) [2] (E. coli 3e03 organisms/mL); 0.00 ng/mL in the experiment on E. coli (strain JM 109) [2] (E. coli 3e04 organisms/mL); 0.00 ng/mL in the experiment on E. coli (strain JM 109) [2] (E. coli 3e05 organisms/mL); 6.97 ng/mL in the experiment on E. coli (strain JM 109) [2] (E. coli 3e06 organisms/mL); 94.3 ng/mL with E. coli (strain JM 109) [2] (E. coli 3e07 organisms/mL); 440.0 ng/mL in the experiment on E. coli (strain JM 109) [2] (E. coli 3e08 organisms/mL). Also, the “neutralization of the endotoxin activity” value with E. coli (strain JM 109) [2] (E. coli up to 3e06 organisms/mL) is “complete neutralization”. The same substance registered a Kd in experiment [3] of 870 nM. The “N, stoichiometry of binding (endotoxin:peptide)” value in experiment [3] came to 0.91. The “neutralization of endotoxin as presented on the surface of E. coli” value in the experiment with E. coli (strain JM 109) [4] is “dose dependent neutralization”.
